Results from publication PMC8708875 (Pharmaceutics, 2021).

Assays:
[1] = system: differentiated C2C12 cells; assay: Glucose uptake in C2C12 myotubes; assay type: cell-based, mouse; conditions: peptides 100 µM, insulin 100 nM; 30 min, 37 °C; 3H-glucose (1 µCi/mL) or 2-NBDG (80 µM)
[2] = system: differentiated C2C12 myotubes; assay: qPCR gene expression in differentiated C2C12 myotubes; assay type: cell-based, mouse; conditions: Ric peptides 100 µM, insulin positive control, qPCR normalised to GAPDH, control = 1, mean ± SEM
Protocol: C2C12 cells were used as a well-described model of skeletal muscle to evaluate the effect of peptides in gene expression, cell signaling, and glucose uptake. These cells were kindly provided by Prof. Patricia Brum, School of Physical Education and Prof. Anselmo Moriscot, Biomedical Science Institute, University of São Paulo, São Paulo, Brazil. C2C12 cells were cultured and maintained in high glucose Dulbecco's modified Eagle's medium (DMEM; Thermo Fisher Scientific, São Paulo, SP, Brazil) supplemented with 10% fetal bovine serum (FBS), 100 U/mL penicillin, and […] streptomycin in a humidified atmosphere of 5% CO2 at 37 °C. The cells were used in low pass (between passages 2 and 4) for all experiments to maintain the potential for differentiation of cultures. Cells grown to approximately 70% confluence in T75 culture flasks were treated with trypsin and seeded in various P100 culture dishes. Cells were then cultured in the presence of 10% FBS until they reach about 90% confluence, at which point the medium was replaced with DMEM containing 2% horse serum for the induction of differentiation in myotubes. During this time, the fused myoblasts formed elongated, multi-nucleated myotubes, and within 7 days more than 95% of the cells already fused into myotubes. Cultures of C2C12 were treated with phosphate buffer saline (137 mM NaCl, 2.7 mM KCl, 10 mM Na2HPO4, and 1.8 mM KH2PO4, pH 7.4; PBS; control), insulin or […], for the indicated period of time. From these treatments the cells were processed for molecular analyses. Real-time PCR (qPCR) experiments were performed to evaluate the mRNA expression levels, at basal and under stimulus, for peroxisome proliferator activator receptor gamma (PPARγ), peroxisome proliferator activator receptor […] responsive element binding protein 1 (Creb1), aldolase A, fructose-bisphosphate (ALDOA), cytochrome c oxidase subunit IV isoform 1 (Cox4i1), phosphoglycerate mutase 2 (PGAM2), troponin I, skeletal, fast 2 (TNNI2), […] (TNNT3), small muscle protein X-linked (SMPX), myosin, […] (MYH1), insulin-growth factor 1 (IGF1), Glucose transporter 4 (GLUT4), and lipoprotein lipase (LPL). Primers sequences are described in Supplementary Materials (Table S1). Cells were homogenized and total RNA extracted using Trizol according to the manufacturer's instructions (TRIzol, Life Technologies, Rockville, MD, USA). After extraction of RNA, all samples were purified and treated with DNAse using RNeasy Mini Kit (Qiagen, Foster City, CA, USA). The integrity of the RNA was verified by 1% agarose gel electrophoresis stained with ethidium bromide and visualized in ultraviolet light. […] The standard curves for all the primers used herein were previously constructed to determine the efficiency of the amplification of the target and reference genes. Quantitative PCRs were performed using the Prism 7900 sequence detection system (Applied Biosystems, Foster City, CA, USA) with 100 nM primer and 20 ng cDNA. The expression of mRNA targets was normalized by expression of gene glyceraldehyde 3-phosphate dehydrogenase (GAPDH) or hipoxantina-guanina fosforibosiltransferase (HPRT) and expressed as relative values using the 2 DDCt method. The expression levels of target genes were normalized with housekeeping genes GAPDH or HPRT, and alterations were expressed relative to control unstimulated cells. […] Therefore, the possible effects of Ric1-Ric4 (100 μM) on gene expression were evaluated. For all these experiments, insulin was used as “gold standard”/positive control, and GAPDH expression was used as normalization control (Table 2, Control “1”/100%). Relative to GAPDH expression, insulin increased the expression of all genes evaluated (Table 1). […]

| Substance | glucose uptake in differentiated C2C12 cells [1] | relative expression of Aldolase A, fructose-bisphosphate (ALDOA) [2] | relative expression of Cytochrome c oxidase subunit IV isoform 1 (Cox4i1) [2] | relative expression of Peroxisome proliferator activator receptor gamma (PPARγ) [2] | relative expression of Phosphoglycerate mutase 2 (PGAM2) [2] | relative expression of Small muscle protein X-linked (SMPX) [2] | relative expression of Troponin I, skeletal, fast 2 (TNNI2) [2] | relative expression of Troponin I, skeletal, fast 3 (TNNT3) [2] | relative expression of cAMP responsive element binding protein 1 (Creb1) [2] |
| --- | --- | --- | --- | --- | --- | --- | --- | --- | --- |
| Insulin | stimulate glucose uptake | 7.65 ± 0.96 | 6.71 ± 1.24 | 6.98 ± 1.23 | 8.26 ± 0.99 | 5.96 ± 0.98 | 6.36 ± 1.13 | 6.22 ± 0.98 | 6.48 ± 1.08 |
| LASVSTVLTSKYR [Ric4, intracellular peptide derived from hemoglobin alpha subunit, last 13 C-terminal amino acids] | stimulate glucose uptake | 4.22 ± 0.74 | 1.41 ± 1.12 | 1.21 ± 1.02 | 2.65 ± 0.87 | 3.21 ± 0.99 | 3.14 ± 0.65 | 2.38 ± 0.72 | 1.03 ± 0.85 |
